Results taken from publication PMC7751416, “Novel positive allosteric modulators of A2B adenosine receptor acting as bone mineralisation promoters” (Journal of Enzyme Inhibition and Medicinal Chemistry, 2020).

Tests used:
[1] = tested on: MSCs; assay: Quantification of mineralisation (Alizarin Red staining) by MSCs-derived osteoblasts; format: cell-based, human; details: MSCs 15 days in osteogenic medium, mean ± SEM
Procedure: Human bone marrow derived MSCs were cultured in normal growth medium (MSCGM, Sigma Aldrich), plated (5.000 cells/cm^2) in 75-cm^2 flasks and incubated at 37 °C in 5% CO2 and 95% air. The medium was changed to remove non adherent cells every 3 to 4 days and the cells were used at passages 2 to 6.
MSCs were seeded at a density of 3300 cells/cm^2 and maintained in growth medium for 2 days. Then, medium was replaced with Mesenchymal Stem Cell Osteogenic Differentiation Medium (Cat. N. C-28013, Sigma Aldrich) and treated in the absence (control) or in the presence of BAY60-6583 (5 nM) alone or in combination with the new compounds. Treatments were repeated every 3 days and the mineralisation was quantified after 15 days of treatment. The rate of mineralisation was quantified using alizarin red staining as previously reported. Briefly, cells were washed with PBS, fixed (4% formaldehyde in PBS) for 15 min and washed three times with PBS. Then, Alizarin Red S (1:100 in distilled water, adjusted to pH 4.2 and filtered) was added and incubated for 20 min, at the end cells were washed (five times) in 50% ethanol and air dried. For quantification, cells were destained overnight in 10% (w/v) cetylpyridinium chloride at room temperature and the absorbance was read using a spectrophotometer (Victor Wallac 2, Perkin Elmer) at 562 nm.
Figure 1. Effects of the new compounds on mineralisation mediated by MSCs-derived osteoblast. MSCs were cultured for 15 days in osteogenic medium with compounds at 1 μM concentration in the presence (A) or in the absence (B) of the A2B AR agonist BAY60-6583 (5 nM). After treatments, cells were stained with Alizarin Red and mineralisation was evaluated as reported in Experimental section. Data are expressed as percentage of mineralisation versus the CTRL set to 100% and represent the mean ± SEM of at least two independent experiments. Each experiment was performed in duplicate. *p < 0.05; **p < 0.01; ***p < 0.001 vs. CTRL. #p < 0.05; ###p < 0.001 vs. BAY60-6583 or NECA.

[2] = tested on: MSCs; set-up: method as in PMID 25241343; details: read-out: EC50, potency on MSCs; cited from earlier work
[3] = molecular target: T1, human A3 adenosine receptors (Homo sapiens, UniProt P0DMS8); assay: Human A3 adenosine receptor competition binding ([3H]NECA, CHO cell membranes); details: radioligand binding, A3 AR
T1 construct: K. N. Klotz, Wurzburg University (gift); host or cells: CHO cells, stably transfected; membranes used
T1 sequence (P0DMS8 1-318): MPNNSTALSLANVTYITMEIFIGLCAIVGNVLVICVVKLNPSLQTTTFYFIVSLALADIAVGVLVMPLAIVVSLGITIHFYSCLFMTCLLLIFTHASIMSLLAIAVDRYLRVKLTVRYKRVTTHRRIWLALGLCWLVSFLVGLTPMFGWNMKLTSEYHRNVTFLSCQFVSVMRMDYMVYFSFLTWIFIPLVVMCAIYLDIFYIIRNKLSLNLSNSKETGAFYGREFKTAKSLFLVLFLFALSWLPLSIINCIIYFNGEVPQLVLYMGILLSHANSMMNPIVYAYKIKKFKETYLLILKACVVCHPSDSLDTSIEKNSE
Procedure: (§1) ADA (Cat. N. 10102105001) was from Sigma Aldrich (Italy). All other reagents were from commercial sources and of the highest commercially available grade. CHO cells stably expressing human A1, A2A, A3 and A2B ARs were kindly supplied by Prof. K. N. Klotz, Wurzburg University, Germany. MSCs (Cat. N. SCC034) were purchased by Sigma Aldrich (Milan, Italy).
Competition binding experiments were performed as previously reported. Briefly, cell membranes of A3 CHO cells were incubated at 25 °C for 180 min in 500 µL of buffer in the presence of [^3H]NECA (30 nM) and six different concentrations of the newly synthesised compounds. NECA (100 µM) was used for the determination of non-specific binding.

[4] = molecular target: T2, human A2B AR (Homo sapiens, UniProt P29275); assay: Measurement of cyclic AMP levels in A2B AR CHO cells; format: cell-based
T2 construct: K. N. Klotz, Wurzburg University (gift); host or cells: CHO cells, stably transfected
T2 sequence (P29275 1-332): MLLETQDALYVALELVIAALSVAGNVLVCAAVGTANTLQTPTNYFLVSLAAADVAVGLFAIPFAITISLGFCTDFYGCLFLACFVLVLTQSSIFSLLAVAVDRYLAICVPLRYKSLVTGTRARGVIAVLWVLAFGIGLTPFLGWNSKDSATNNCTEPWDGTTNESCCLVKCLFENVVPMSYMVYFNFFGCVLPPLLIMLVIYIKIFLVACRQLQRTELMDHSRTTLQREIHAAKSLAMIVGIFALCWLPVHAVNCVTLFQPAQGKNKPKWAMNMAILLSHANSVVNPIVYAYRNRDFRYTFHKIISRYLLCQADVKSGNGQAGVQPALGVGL
Procedure: Intracellular cyclic AMP (cAMP) levels were measured using a competitive protein binding method, as previously reported[31] A2B AR CHO cells were seed at a density of 24 000 cell/cm^2 in a 24 multiwell plate. After 48 h, the medium was removed and the cells were incubated at 37 °C for 15 min with 500 µL of Dulbecco’s Modified Eagle Medium (DMEM) in the presence of ADA (1 U/mL) and the phosphodiesterase inhibitor Ro20-1724 (20 µM).
The agonist efficacy profile of the compounds at ARs was evaluated by assessing their ability to modulate intracellular cAMP levels in the absence of standard agonists. The antagonism profile of the new compounds was evaluated by assessing their ability to inhibit 100 nM NECA-mediated accumulation of cAMP. The new compounds were incubated 10 min before the addiction of the agonists. Then, cells were incubated in the reaction medium for 15 min at 37 °C. The reaction was stopped by the removal of the medium and the addition of 0.4 N HCl. After 30 min, lysates were neutralised with 4 N KOH and the suspension was centrifuged at 800 g for 5 min. For the determination of cAMP production, bovine adrenal cAMP-binding protein was incubated with [^3H]cAMP (2 nM) at 0 °C for 150 min in a total volume of 300 µL. Bound radioactivity was separated by rapid filtration. The radioactivity was measured by liquid scintillation spectrometry.
Figure 2. Effects of compound 9 as positive allosteric modulator of the A2B AR. A) Effects of 9 on NECA-mediated cAMP accumulation in human A2B AR-transfected CHO cells. CHO cells were treated with an EC50 NECA concentration (100 nM) in the absence or presence of different concentrations of the tested compound (1 nM–10 μM). […] CHO cells were treated with different NECA concentration (1 nM–10 μM) in the absence or presence of 9 (650 nM or 6.5 μM). After 15 min incubation, the reaction was stopped and the intracellular cAMP levels were quantified. The data are expressed as the percentage of cAMP/well versus the maximal NECA effect, which was set to 100% and represent the mean ± SEM of at least three different experiments. Each experiment was performed in duplicate.

[5] = molecular target: T3, human A2A adenosine receptors (Homo sapiens, UniProt P29274); assay: Human A2A adenosine receptor competition binding ([3H]NECA, CHO cell membranes); details: radioligand binding, A2A AR
T3 construct: K. N. Klotz, Wurzburg University (gift); host or cells: CHO cells, stably transfected; membranes used
Procedure: as §1
Competition binding experiments were performed as previously reported. Briefly, membranes of A2A CHO cells were incubated at 25 °C for 90 min in 500 µL of buffer in the presence of [^3H]NECA (30 nM) and six different concentrations of the newly synthesised compounds. NECA (100 µM) was used for the determination of non-specific binding.

[6] = molecular target: T4, human A1 adenosine receptors (Homo sapiens, UniProt P30542); assay: Human A1 adenosine receptor competition binding ([3H]DPCPX, CHO cell membranes); details: radioligand binding, A1 AR
T4 construct: K. N. Klotz, Wurzburg University (gift); host or cells: CHO cells, stably transfected; membranes used
T4 sequence (P30542 1-326): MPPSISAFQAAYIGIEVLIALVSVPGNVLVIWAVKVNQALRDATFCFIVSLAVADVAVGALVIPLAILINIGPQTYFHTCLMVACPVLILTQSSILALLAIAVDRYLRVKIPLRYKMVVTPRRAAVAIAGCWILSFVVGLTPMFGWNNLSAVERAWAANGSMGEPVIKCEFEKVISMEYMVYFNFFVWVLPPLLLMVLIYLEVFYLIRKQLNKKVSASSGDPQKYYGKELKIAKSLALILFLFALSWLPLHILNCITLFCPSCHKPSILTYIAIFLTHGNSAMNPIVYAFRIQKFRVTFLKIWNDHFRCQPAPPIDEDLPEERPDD
Procedure: as §1
Competition binding experiments were performed as previously reported. […] R-PIA (50 µM) was used for the determination of non-specific binding.

[7] = compound 1 μM alone, in the absence of BAY60-6583
[8] = compound 1 μM in the presence of BAY60-6583 (5 nM)
[9] = NECA concentration-response curves (1 nM-10 μM) in absence or presence of 9 (650 nM and 6.5 µM)

T3 sequence (P29274 whole entry): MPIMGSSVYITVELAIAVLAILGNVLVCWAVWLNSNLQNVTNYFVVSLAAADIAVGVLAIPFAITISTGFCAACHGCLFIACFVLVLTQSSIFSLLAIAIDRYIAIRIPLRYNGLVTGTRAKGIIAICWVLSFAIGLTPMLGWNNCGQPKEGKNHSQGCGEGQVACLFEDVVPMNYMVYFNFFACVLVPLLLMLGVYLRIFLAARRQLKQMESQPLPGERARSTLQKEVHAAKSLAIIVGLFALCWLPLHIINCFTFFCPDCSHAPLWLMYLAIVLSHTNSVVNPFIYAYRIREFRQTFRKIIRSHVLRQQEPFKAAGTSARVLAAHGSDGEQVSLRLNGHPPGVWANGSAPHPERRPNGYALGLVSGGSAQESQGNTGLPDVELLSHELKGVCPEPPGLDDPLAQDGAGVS

O=C(NCc1ccccc1)C(=O)c1csc2ccccc12 [Compound 8, N-Benzyl-2-(benzothien-3-yl)glyoxylamide]
percentage of mineralisation versus the CTRL set to 100% [1, 7]: inactivity
melting point: 87 to 89 °C

N#Cc1c(N)nc(SCC(N)=O)c(C#N)c1-c1ccc(OCC2CC2)cc1 [BAY60-6583, reference compound]
EC50 [2]: 6 nM
percentage of mineralisation versus the CTRL set to 100% ([1]; BAY60-6583 5 nM alone): 129.5 ± 1.9%

Cn1cc(C(=O)C(=O)c2ccccc2)c2ccccc21 [Compound 13, 1-(1-Methyl-1H-indol-3-yl)-2-phenyl-1,2-ethanedione]
melting point: 88 to 90 °C

O=C(NCc1ccccc1)C(=O)c1cn(CCc2ccccc2)c2ccccc12 [Compound 5, N-Benzyl-2-(1-phenylethyl-1H-indol-3-yl)glyoxylamide]
percentage of mineralisation versus the CTRL set to 100% [1, 7]: 128.7 ± 3.6%
percentage of mineralisation versus the CTRL set to 100% [1, 8]: 152.3 ± 4.3%
melting point: 83 to 85 °C

Cn1cc(C(=O)C(=O)NCc2ccccc2)c2ccccc21 [Compound 7, N-Benzyl-2-(1-methyl-1H-indol-3-yl)glyoxylamide]
melting point: 147 to 149 °C

O=C(NCc1ccc(Cl)cc1)C(=O)c1cc2ccccc2o1 [Compound 9, N-(4-Chlorobenzyl)-2-(benzofuran-2-yl)glyoxylamide]
Ki [3]: > 10000 nM
percentage of mineralisation versus the CTRL set to 100% [1, 7]: 111.5 ± 4.6%
percentage of mineralisation versus the CTRL set to 100% [1, 8]: 156.8 ± 7.6%
effect on efficacy of NECA in stimulating cAMP accumulation [4, 9]: significantly enhanced the efficacy of NECA
effect on potency of NECA in stimulating cAMP accumulation [4, 9]: without affecting agonist potency
EC50 ([4]; compound 1 nM-10 µM in the presence of NECA 100 nM, human A2B AR-transfected CHO cells, read-out: EC50, positive allosteric modulation of A2B AR (NECA-mediated cAMP accumulation)): 636 ± 65.3 nM
% cAMP production (vs NECA 100 nM set to 100%), Alone ([4]; compound 10 µM alone, CHO cells expressing human A2B AR, mean ± SEM): 2.7 ± 1.3%
% cAMP production (vs NECA 100 nM set to 100%), + agonist ([4]; compound 10 µM in the presence of NECA (100 nM), CHO cells expressing human A2B AR, mean ± SEM): 184.0 ± 11.7 %
Ki [5]: > 10000 nM
Ki [6]: > 10000 nM
melting point: 137 to 139 °C

Cn1cc(C(=O)C(=O)Nc2ccccc2)c2ccccc21 [Compound 6, N-Phenyl-2-(1-methyl-1H-indol-3-yl)glyoxylamide]
melting point: 167 to 169 °C

O=C(Nc1ccccc1)C(=O)c1cn(CCc2ccccc2)c2ccccc12 [Compound 4]
percentage of mineralisation versus the CTRL set to 100% [1, 7]: 130.0 ± 6.8%
percentage of mineralisation versus the CTRL set to 100% [1, 8]: 179.2 ± 9.6%
melting point: 139 to 140 °C

O=C(NCc1ccccc1)C(=O)c1cccs1 [Compound 10, N-Benzyl-2-(thien-2-yl)glyoxylamide]
percentage of mineralisation versus the CTRL set to 100% [1, 7]: inactivity
percentage of mineralisation versus the CTRL set to 100% [1, 8]: 150.6 ± 2.6%
melting point: 95.6 to 95.8 °C
